For experiment [1], the system named is contraction induced by arachidonic acid. The experiment can be described thus: Arachidonic acid-induced contraction of isolated stomach fundus strip. Details: species or system Sprague-Dawley rats. As to conditions: rat stomach fundus strip, arachidonic acid 1.0×10^-5 g/ml as spasmogen, compound added 15 minutes before. On the procedure:
The stomach was removed from Sprague-Dawley rats, weighing about 180 g., after the animals were fasted overnight. A strip of stomach fundus was suspended under initial tension of 0.6 g. in a 10 ml. organ bath containing Tyrode solution. Arachidonic acid (1.0×10^-5 g/ml.) was employed as the spasmogen. Several doses of the test compound were added to the individual bath fluid 15 minutes before the addition of arachidonic acid. The value of contraction induced by arachidonic acid was measured and plotted dose-activity curve. ED50 value of each test compound was obtained by interpolation from the dose-activity curve.

A further experiment relates to erythema. The experiment can be described thus: UV-induced erythema test (number of rats estimated as effective). It is filed as in vivo, male Hartley rats. As to conditions: oral, ten rats per group, half 1 h before and half just after UV radiation, scored 2 h later. How it is done: Ten male 5 week old Hartley rats, each weighing about 350 g. were used per group. The backs of each animal were depilated 24 hours before the test. An adhesive tape with 3 small holes of 9 mm. diameter was placed on the depilated skin and then the animal was exposed to ultra-violet radiation from an ultra-violet lamp (500 W, manufactured by Engelhard Hanovia Inc.) at a distance of 13 cm. for 80 seconds. Two hours later, the degree of erythema was estimated on the basis of the following scores:
1.0: erythema with clear border,
0.5: erythema with unclear border,
The drugs were regarded as being effective when the total of 3 points was below 1.5.
Each dosage of the test compound was administered orally in a suspension form in 20 ml. of 0.5% methyl cellosolve aqueous solution. Half of the test sample was administered one hour before the radiation and the remaining half of the test solution was administered just after radiation.

The test system of experiment [2] is Brewer's yeast-induced hyperthermia. The experiment in a line: Brewer's yeast-induced hyperthermia (antipyretic effect). It is filed as in vivo, male SD strain rats. As to conditions: oral; for ED50: Rattus norvegicus. How it is done:
(§1) Male SD strain rats aged 6 weeks, weighing 164-235 g, were divided into 4 groups i.e. A, B, A' and B' of 10 animals each and were treated as shown below:
(§2) Group A saline 0.5% methylcellulose
(§3) Group B 5% Brewer's yeast
(§4) Group A' saline Test substance
(§5) Group B' 5% Brewer's yeast
(§6) The test substance or 0.5%MC were given orally to rats 4 hr after subcutaneous injection of 5% Brewer's yeast or saline. The rectal temperature was measured with a thermister probe inserted about 4.5-5.0 cm into the rectum 4 hr before, and 1 and 2 hr after the injection of test substance.
The antipyretic effect (%) of test substance on the Brewer's yeast-induced hyperthermia at 1 and 2 hr after the injection of test substance was calculated from the mean rectal temperature (rectal temp.) in each group by the following formula: [formula]
(§7) All experiments were performed at an ambient temperature of 22.0°-22.5° C.
(§8) Test substance, the compound obtained in the Example 5-(2) was dissolved in 0.5%MC at a dose of 10 mg/kg and 100 mg/kg, and also suspended in 0.5%MC at a dose of 320 mg/kg, and Brewer's yeast was suspended in saline.
(§9) Statistics: Calculation of ED50 value according to the Litchfield-Wilcoxon's method was performed with a computer program. Statistic analysis of difference between the control and treated groups according to the Student's t-test or Cochran-Cox test was performed with a computer program.

Experiment [3] can be described thus: Rectal temperature in saline-treated rats. It is filed as in vivo, male SD strain rats. On the procedure: as §1, §2, §3, §4, §5, §6, §7, §8, §9
The next experiment deals with writhing syndrome. The experiment in a line: Acetic acid-induced writhing syndrome. The class given is in vivo, male ddy strain mice. To be noted: oral. On the procedure: Male ddy strain mice, weighing 24.0-32.0 g, were used. Each dose group consisted of 10 animals. Writhing syndrome was produced by an intraperitoneal injection of 20 ml/kg of 0.6% acetic acid. […] The drug were given orally 60 minutes before acetic acid. The frequency of writhing syndrome for 10 minutes in the treated animals was compared with that in the control. Control animals received the vehicle.
The test substances, the compound obtained in the Example 5-(2) was suspended in 0.5% methylcellulose.
ED50 value was calculated according to the Litchfield-Wilcoxon's method with a computer program.

In experiment [1], `Nc1c(CC(=O)[O-])cccc1Oc1cccc(Cl)c1.[Na+]` [Example 4 - (2), sodium 2-[2-amino-3-(3-chlorophenoxy)phenyl]acetate] displayed an ED50 of 1.7 µg/mL.

Take `Nc1c(CC(=O)[O-])cccc1Oc1ccccc1F.[Na+]` [Example 2 - (2), sodium 2-[2-amino-3-(2-fluorophenoxy)phenyl]acetate]: the “Number of rats estimated as effective” value is on record as 9 rats in the experiment with erythema (2 mg/kg) and 10 rats with erythema (10 mg/kg). The compound further came in with an ED50 in experiment [1] of 1.6 µg/mL.

Regarding `Nc1c(CC(=O)[O-])cccc1Oc1ccccc1Cl.[Na+]` [Example 5 - (2), sodium 2-[2-amino-3-(2-chlorophenoxy)phenyl]acetate], the ED50 in experiment [2] (1 hr after administration) was 37.3 mg/kg; in experiment [2] (2 hr after administration) it was 12.8 mg/kg; in the experiment on writhing syndrome (Mus musculus, 60 minutes before acetic acid, writhing 3 to 13 minutes after acetic acid, read-out: ED50 value (inhibition of writhing)) it was 19.6 mg/kg; in experiment [1], 1.3 µg/mL. Besides, the “antipyretic effect on the Brewer's yeast-induced hyperthermia” value in experiment [2] (all doses (10, 100, 320 mg/kg), 1 and 2 hr after administration) is given as “showed the antipyretic effect on the Brewer's yeast-induced hyperthermia”. In addition, the “Number of rats estimated as effective” value in the experiment with erythema (2 mg/kg) is 8 rats; with erythema (10 mg/kg), 10 rats. For the same compound, the rectal temperature change result is reported as “produced a rise” in experiment [3] (10 mg/kg, 1 hr, slight but significant); “significant fall of the rectal temperature” in experiment [3] (100 mg/kg, 2 hr); “produced a fall of the rectal temperature” in experiment [3] (320 mg/kg, 1 hr, slight but significant); “significant fall of the rectal temperature” in experiment [3] (320 mg/kg, 2 hr). For the same compound, the “effect on the writhing syndrome caused by acetic acid” value with writhing syndrome is reported as “dose-related inhibiting effects on the writhing syndrome”.

With `Cc1ccccc1Oc1cccc(CC(=O)[O-])c1N.[Na+]` [Example 10 - (2), sodium 2-[2-amino-3-(o-tolyloxy)phenyl]acetate], the “Number of rats estimated as effective” value in the experiment on erythema (2 mg/kg) is 5 rats; in the experiment with erythema (10 mg/kg) it was 10 rats. This compound yielded an ED50 in experiment [1] of 2.5 µg/mL.

On to `Nc1c(CC(=O)[O-])cccc1Oc1c(Cl)cccc1Cl.[Na+]` [Example 19, sodium 2-[2-amino-3-(2,6-dichlorophenoxy)phenyl]acetate], for which, in experiment [1], the ED50 was 2.4 µg/mL.

Take `Nc1c(CC(=O)[O-])cccc1Oc1cc(Cl)cc(Cl)c1.[Na+]` [Example 7 - (2), sodium 2-[2-amino-3-(3,5-dichlorophenoxy)phenyl]acetate]: in experiment [1], the ED50 stood at 0.16 µg/mL.

The record behind these values is US4472433A, “Phenoxyphenyl acetic acids and their medicinal use” (Fujisawa Pharmaceutical Co., Ltd., priority 1978, dated 1984).
